Laboratory results as given in ChEMBL document CHEMBL1201862, “PubChem BioAssay data set” (2004).
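Values below derive from 48-hour exposures of cells grown in 96-well plates, with endpoints linearly interpolated between the two concentrations bracketing the appropriate inhibition level. GI50 is the concentration that inhibits growth by half.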 The source made the active and inactive calls. Rule as the data show it: active = GI50 up to about 1.1 µM and inactive = higher.

Key:
Experiment in all cases: DTP human tumour cell line panel, 48 h
DLD-1 = system: DLD-1
XF498 = system: XF498
KM-20L2 = system: KM-20L2
M19-MEL = system: M19-MEL
SNB-78 = system: SNB-78
LXFL 529 = system: LXFL 529
DMS-114 = system: DMS-114
HOP-18 = system: HOP-18
RXF 631 = system: RXF 631

Question: What does the source list for `COc1cc2c(cc1OC)NC(=O)NC(Cc1ccc3c(c1)OCO3)CC2` (stereo not given)?
Answer: GI50 (DLD-1): > 100 µM (inactive); GI50 (XF498): > 100 µM (inactive); GI50 (KM-20L2): > 100 µM (inactive); GI50 (M19-MEL): > 100 µM (inactive); GI50 (SNB-78): > 100 µM (inactive); GI50 (LXFL 529): > 100 µM (inactive); GI50 (DMS-114): > 100 µM (inactive)

Question: What does the source list for `Clc1ncnc2c1ncn2CCCCCCCCCCCCn1cnc2c(Cl)ncnc21`?
Answer: GI50 (HOP-18): 17.1 µM (inactive); GI50 (DLD-1): 7.94 µM (inactive); GI50 (XF498): 9.38 µM (inactive); GI50 (KM-20L2): 16.1 µM (inactive); GI50 (M19-MEL): 2.27 µM (inactive); GI50 (SNB-78): 3.56 µM (inactive); GI50 (LXFL 529): 4.44 µM (inactive); GI50 (DMS-114): 1.67 µM (inactive)

Question: How did the GI50 (DLD-1) turn out when `COc1ccc(CC2(Cc3ccc(OC)cc3)CCOC2=O)cc1` was run?
Answer: The GI50 was > 100 µM (inactive).

Question: And the GI50 (XF498)?
Answer: The GI50 was 0.582 µM (active).

Question: And the GI50 (M19-MEL)?
Answer: The GI50 was > 100 µM (inactive).

Question: And the GI50 (LXFL 529)?
Answer: The GI50 was > 100 µM (inactive).

Question: And the GI50 (DMS-114)?
Answer: The GI50 was 23.9 µM (inactive).

Question: `C/C(=C1/N=C(c2cc([N+](=O)[O-])ccc2Cl)N(c2cccc(C)c2)C1=O)c1cc2ccccc2oc1=O` was tested. Which GI50 (RXF 631) did it give?
Answer: Its GI50 is > 100 µM (inactive).

Question: And the GI50 (HOP-18)?
Answer: The GI50 was 74.6 µM (inactive).

Question: What about the GI50 (DLD-1) of the same compound?
Answer: The GI50 was 31.7 µM (inactive).

Question: And the GI50 (XF498)?
Answer: The GI50 was 21 µM (inactive).

Question: What about the GI50 (KM-20L2) of the same compound?
Answer: The GI50 was > 100 µM (inactive).

Question: What about the GI50 (M19-MEL) of the same compound?
Answer: The GI50 was 66.2 µM (inactive).

Question: And the GI50 (SNB-78)?
Answer: Its GI50 is > 100 µM (inactive).

Question: What about the GI50 (LXFL 529) of the same compound?
Answer: The GI50 was 84.9 µM (inactive).

Question: What about the GI50 (DMS-114) of the same compound?
Answer: Its GI50 is 27.1 µM (inactive).

Question: What does the source list for `C#CCNC(=O)ON1C(=O)CCC1=O`?
Answer: GI50 (RXF 631): > 100 µM (inactive); GI50 (HOP-18): > 100 µM (inactive); GI50 (DLD-1): > 100 µM (inactive); GI50 (KM-20L2): > 100 µM (inactive); GI50 (M19-MEL): > 100 µM (inactive); GI50 (SNB-78): > 100 µM (inactive); GI50 (LXFL 529): > 100 µM (inactive)

Question: Which GI50 (RXF 631) does the source give for `O=C1c2c(n(Cc3ccccc3)c(=O)n2Cc2ccccc2)C(=O)N1Cc1ccccc1` here?
Answer: The GI50 was 62.7 µM (inactive).

Question: What about the GI50 (HOP-18) of the same compound?
Answer: The GI50 was > 100 µM (inactive).

Question: And the GI50 (DLD-1)?
Answer: The GI50 was 63 µM (inactive).

Question: What about the GI50 (XF498) of the same compound?
Answer: Its GI50 is 16.4 µM (inactive).

Question: And the GI50 (KM-20L2)?
Answer: Its GI50 is 52.7 µM (inactive).

Question: And the GI50 (M19-MEL)?
Answer: Its GI50 is > 100 µM (inactive).

Question: And the GI50 (SNB-78)?
Answer: The GI50 was > 100 µM (inactive).

Question: What about the GI50 (LXFL 529) of the same compound?
Answer: The GI50 was 35 µM (inactive).

Question: And the GI50 (DMS-114)?
Answer: The GI50 was 34.6 µM (inactive).

Question: `COC(=O)c1c(CC(=O)OC(C)C)cc2n(c1=O)Cc1c-2nc2ccccc2c1OC` was tested. Which GI50 (HOP-18) did it give?
Answer: Its GI50 is > 100 µM (inactive).

Question: And the GI50 (DLD-1)?
Answer: Its GI50 is > 100 µM (inactive).

Question: What about the GI50 (XF498) of the same compound?
Answer: Its GI50 is > 100 µM (inactive).

Question: What about the GI50 (KM-20L2) of the same compound?
Answer: Its GI50 is > 100 µM (inactive).

Question: And the GI50 (M19-MEL)?
Answer: Its GI50 is > 100 µM (inactive).

Question: What about the GI50 (LXFL 529) of the same compound?
Answer: Its GI50 is > 100 µM (inactive).

Question: And the GI50 (DMS-114)?
Answer: The GI50 was > 100 µM (inactive).

Question: Which results are given for `O=C(Cc1nc2ccccc2c(=O)n1-c1c(Cl)cccc1Cl)c1ccncc1`?
Answer: GI50 (RXF 631): 23.9 µM (inactive); GI50 (HOP-18): 33.8 µM (inactive); GI50 (DLD-1): 26.7 µM (inactive); GI50 (KM-20L2): 27.5 µM (inactive); GI50 (M19-MEL): 20.3 µM (inactive); GI50 (SNB-78): 34.1 µM (inactive); GI50 (LXFL 529): 27.7 µM (inactive); GI50 (DMS-114): 25.2 µM (inactive)

Question: Which results are given for `Cc1nc(-c2nc(C)c(C(=O)/C=C/c3ccc([N+](=O)[O-])cc3)s2)sc1C(=O)/C=C/c1ccc([N+](=O)[O-])cc1`?
Answer: GI50 (DLD-1): > 100 µM (inactive); GI50 (KM-20L2): > 100 µM (inactive); GI50 (M19-MEL): > 100 µM (inactive); GI50 (SNB-78): > 100 µM (inactive); GI50 (LXFL 529): > 100 µM (inactive); GI50 (DMS-114): > 100 µM (inactive)

Question: Which GI50 (HOP-18) does the source give for `Cn1c(=O)oc2cc(C3CCC(=O)N3Cc3ccc(Cl)cc3)ccc21` (stereo not given) here?
Answer: Its GI50 is > 100 µM (inactive).

Question: What about the GI50 (DLD-1) of the same compound?
Answer: The GI50 was 92 µM (inactive).

Question: And the GI50 (XF498)?
Answer: Its GI50 is > 100 µM (inactive).

Question: What about the GI50 (KM-20L2) of the same compound?
Answer: The GI50 was > 100 µM (inactive).

Question: And the GI50 (M19-MEL)?
Answer: Its GI50 is > 100 µM (inactive).

Question: And the GI50 (SNB-78)?
Answer: Its GI50 is > 100 µM (inactive).

Question: What about the GI50 (LXFL 529) of the same compound?
Answer: Its GI50 is > 100 µM (inactive).

Question: And the GI50 (DMS-114)?
Answer: The GI50 was > 100 µM (inactive).

Question: Which GI50 (RXF 631) does the source give for `N=S(c1ccccc1[N+](=O)[O-])c1ccccc1[N+](=O)[O-]` here?
Answer: The GI50 was 1.8 µM (inactive).

Question: And the GI50 (HOP-18)?
Answer: The GI50 was 6.11 µM (inactive).

Question: And the GI50 (M19-MEL)?
Answer: The GI50 was 3.3 µM (inactive).

Question: And the GI50 (SNB-78)?
Answer: Its GI50 is 2.68 µM (inactive).

Question: What about the GI50 (LXFL 529) of the same compound?
Answer: The GI50 was 2.96 µM (inactive).

Question: How did the GI50 (DLD-1) turn out when `CC12Oc3ccc4ccccc4c3C1c1c(ccc3ccccc13)O2` (stereo not given) was run?
Answer: Its GI50 is > 100 µM (inactive).

Question: What about the GI50 (XF498) of the same compound?
Answer: Its GI50 is > 100 µM (inactive).

Question: And the GI50 (KM-20L2)?
Answer: The GI50 was > 100 µM (inactive).

Question: What about the GI50 (M19-MEL) of the same compound?
Answer: Its GI50 is > 100 µM (inactive).

Question: And the GI50 (SNB-78)?
Answer: Its GI50 is > 100 µM (inactive).

Question: And the GI50 (LXFL 529)?
Answer: The GI50 was > 100 µM (inactive).

Question: And the GI50 (DMS-114)?
Answer: The GI50 was > 100 µM (inactive).

Question: What does the source list for `CCCCCCCCCCCCCCCC(=O)OCC1OC(OC)C(NC(=O)N(CCCl)N=O)C(O)C1O` (stereo not given)?
Answer: GI50 (HOP-18): 32.4 µM (inactive); GI50 (DLD-1): 14.7 µM (inactive); GI50 (XF498): 7.66 µM (inactive); GI50 (KM-20L2): 20.3 µM (inactive); GI50 (M19-MEL): 22.5 µM (inactive); GI50 (SNB-78): 24.5 µM (inactive); GI50 (LXFL 529): 16.3 µM (inactive); GI50 (DMS-114): 13.2 µM (inactive)

Question: What does the source list for `[N-]=[N+]=N[C@H]1C[C@@H](CO)O[C@H]1n1cnc2c(N)ncnc21`?
Answer: GI50 (HOP-18): 0.202 µM (active); GI50 (DLD-1): > 100 µM (inactive); GI50 (XF498): 31.2 µM (inactive); GI50 (KM-20L2): > 100 µM (inactive); GI50 (M19-MEL): > 100 µM (inactive); GI50 (SNB-78): > 100 µM (inactive); GI50 (LXFL 529): > 100 µM (inactive); GI50 (DMS-114): > 100 µM (inactive)

Question: With `Cc1ccc(C2=NN(C)COC2C(F)(F)F)cc1` (stereo not given) as the compound, how does the GI50 (RXF 631) read?
Answer: Its GI50 is > 100 µM (inactive).

Question: And the GI50 (HOP-18)?
Answer: Its GI50 is > 100 µM (inactive).

Question: And the GI50 (DLD-1)?
Answer: Its GI50 is > 100 µM (inactive).

Question: What about the GI50 (KM-20L2) of the same compound?
Answer: The GI50 was > 100 µM (inactive).

Question: What about the GI50 (M19-MEL) of the same compound?
Answer: Its GI50 is > 100 µM (inactive).

Question: And the GI50 (SNB-78)?
Answer: Its GI50 is > 100 µM (inactive).

Question: And the GI50 (LXFL 529)?
Answer: Its GI50 is > 100 µM (inactive).

Question: And the GI50 (DMS-114)?
Answer: Its GI50 is > 100 µM (inactive).
